Measurements as given in article PMC10206040, “Identification of novel anti-amoebic pharmacophores from kinase inhibitor chemotypes” (Frontiers in Microbiology, 2023).
Entries after “also recorded” stand apart in the source; their conditions may differ. Like-named read-outs stand apart in the source and are kept apart here.

Tests used:
[1] = system: Acanthamoeba castellanii T4 isolate (ATCC 50370) trophozoites; assay: CellTiter-Glo 2.0 trophocidal assay, A. castellanii; format: cell-based; conditions: Acanthamoeba castellanii, ATCC50370, 72 h, read-out: Acanthamoeba castellanii EC50 ± SD
Description: This isolate was purchased from American Type Culture Collection (ATCC). […] For sub-culturing, cells were mechanically harvested to detach the cells from the culture flasks.

[2] = system: Naegleria fowleri (ATCC 30215) trophozoites; assay: microbe, parasite or virus in culture
Outline: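 Logarithmic-phase axenic trophozoites in Nelson's complete medium with 10% FBS, exposed to compound 72 h at 34°C, 5% CO2. Viability read as ATP luminescence (CellTiter-Glo 2.0); values from at least three biological replicates with SD.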

[3] = system: Balamuthia mandrillaris (CDC:V039; ATCC 50209) trophozoites; assay: CellTiter-Glo 2.0 trophocidal assay, B. mandrillaris; format: cell-based
Description: For sub-culturing, 0.25% Trypsin–EDTA (Gibco) cell detachment reagent was used to detach the cells from the culture flasks.

[4] = Human fetal lung fibroblast (MRC5) cell cytotoxicity assay (resazurin); conditions: human
Procedure: (§1) Intermediate plates were made as described, adding 95 μL of DMEM complete media to 5 μL of compound per well setting a 5% DMSO amount. Log-phase MRC5 cells were removed from a T-75 TC flask using TrypLE® Express (Thermo®) and dispersed by gentle pipetting. Cell density was adjusted to working concentration in prewarmed DMEM medium: 25,000 cells in 90 μL of culture were plated in 96-well transparent Nunclon plates and allowed to settle for 24 h at 37°C and 5% CO2. […] Plates were incubated for 48 h at 37°C and 5% CO2. At 4 h prior to fluorescence measurement, 20 μL of 500 μM resazurin solution was added.
(§2) A four-parameter equation was used to fit the dose–response curves and determination of EC50 by SigmaPlot ® 13.0 software. Assays were performed in duplicate at least twice for positive compounds, to achieve a minimal […] per dose response.

MRC5 cells = assay: as above; conditions: for MRC5 TC50 ± Standard Deviation: Table S2, in µM
Procedure: as §1, §2

[5] = Rat skeletal muscle cell line (L6) cytotoxicity assay (resazurin); conditions: rat
Procedure: (§3) One hundred microliters (100 μL) per well of culture medium containing the compounds and controls were added to L6 cells previously cultured (4 × 10^3 L6 cells per well). After 72 h at 37°C the medium was exchanged, and the viable cell number was determined by resazurin (Sigma–Aldrich) reduction. 20 μl of resazurin (1.1 mg/ml) was added to each well and incubated in the dark for 2 h at 37°C.

L6 cells = assay: as above; conditions: Table S2; in µM
Procedure: as §3

THP-1 = assay: Cytotoxicity assay in THP-1 (MTT); format: cell-based; conditions: Table S2, 72 h, maximal concentration 50 μM
Procedure: Cytotoxicity assay in TH P-1. Cellular toxicity of all compounds was determined using the colorimetric MTT-based assay after incubation at 37 °C for 72 h in the presence of increasing concentrations of compounds (final maximal concentration was 50 μM in 0.5% DMSO per well) [ 1] . The results are expressed […]
cells. Assays were performed in duplicate at least twice to achieve a minimal n=3 per dose response. […]
Cytotoxicity assay in THP-1. Cellular toxicity of all compounds was determined using the colorimetric MTT-based assay after incubation at 37 °C for 72 h in the presence of increasing concentrations of compounds (final maximal concentration was 50 μM in 0.5% DMSO per well). […] Assays were performed in duplicate at least twice to achieve a minimal n=3 per dose response.

[6] = cited from earlier work; for blood/brain ratio: 10 mg/kg I.P., 2019; for in vivo toxicity in PK study: dosed I.P. at 10 mg/kg, ref Tear et al., 2020
[7] = logarithmic trophozoites, 72 h, n = 3
[8] = Naegleria fowleri, ATCC30215, 72 h, read-out: Naegleria fowleri EC50 ± SD, logarithmic trophozoites, 72 h, n = 3 (converted)
[9] = Balamuthia mandrillaris, ATCC50209, 72 h, logarithmic trophozoites, 72 h, n = 3, read-out: Balamuthia mandrillaris EC50 ± SD
[10] = MRC5 cells (human fetal lung fibroblasts)
[11] = L6 cells (rat skeletal muscle cell line)
[12] = Naegleria fowleri, 72 h, read-out: Naegleria fowleri EC50 ± SD, logarithmic trophozoites, 72 h, n = 3 (converted)
[13] = Balamuthia mandrillaris, ATCC50209, 72 h, read-out: Balamuthia mandrillaris EC50 ± SD

## Nc1ccnc(-c2cc3c4c(n[nH]c4c2)Nc2ccccc2O3)n1 [Compound 1a]
[1]; [7]
  EC50: 3.8 ± 0.46 µM
[2]; [8]
  EC50: ≤ 14 µM
[2]; read-out: Naegleria fowleri EC50 ± SD, logarithmic trophozoites, 72 h, n = 3
  EC50: 8.5 ± 0.34 µM
[3]; [9]
  EC50: 17 ± 3 µM
[4]; [10]
  CC50 at 48 h: > 50 µM
MRC5 cells
  MRC5 TC50 ± Standard Deviation: > 50
[5]; [11]
  CC50 at 72 h: 32 ± 2.5 µM
L6 cells
  L6 TC50 ± Standard Deviation: 32 ± 2.5
THP-1
  THP-1 TC50 ± Standard Deviation: > 50

## CNc1nccc(-c2cc3c4c(n[nH]c4c2)Nc2ccccc2O3)n1 [Compound 1c]
[1]; [7]
  EC50: 3.3 ± 0.31 µM
[2]; N. fowleri EC50 versus MRC5 cells
  selectivity versus MRC5: > 10 fold
[2]; N. fowleri EC50 versus THP-1 cells
  selectivity versus THP-1: > 10 fold
[3]; [9]
  EC50: 1.9 ± 1.3 µM
[4]; [10]
  CC50 at 48 h: > 50 µM
MRC5 cells
  MRC5 TC50 ± Standard Deviation: > 50
[5]; [11]
  CC50 at 72 h: 6.3 ± 0.55 µM
L6 cells
  L6 TC50 ± Standard Deviation: 6.3 ± 0.55
THP-1
  THP-1 TC50 ± Standard Deviation: 5.0 ± 0.11

## CCOc1cc(-c2ccnc(N)n2)cc2c1c(N)nn2C [Compound 1d]
[1]; [7]
  EC50: 12 ± 8.3 µM
[2]; [8]
  EC50: > 20 µM
[3]; [9]
  EC50: 9.49 ± 0.23 µM
[3]; logarithmic trophozoites, 72 h, n = 3, read-out: Balamuthia mandrillaris EC50 ± SD
  EC50: 9.5 ± 0.23 µM
[4]; [10]
  CC50 at 48 h: > 50 µM
MRC5 cells
  MRC5 TC50 ± Standard Deviation: > 50
[5]; [11]
  CC50 at 72 h: > 17 µM
L6 cells
  L6 TC50 ± Standard Deviation: > 17 ± 0.052
THP-1
  THP-1 TC50 ± Standard Deviation: > 50

## Cn1nc2c3c(cc(-c4ccnc(N)n4)cc31)Oc1ccccc1N2 [Compound 1e]
[1]; [7]
  EC50: > 20 µM
[2]; [8]
  EC50: > 20 µM
[3]; [9]
  EC50: 14 ± 0.29 µM
[4]; [10]
  CC50 at 48 h: > 50 µM
MRC5 cells
  MRC5 TC50 ± Standard Deviation: > 50
[5]; [11]
  CC50 at 72 h: > 50 µM
L6 cells
  L6 TC50 ± Standard Deviation: > 50
THP-1
  THP-1 TC50 ± Standard Deviation: > 50
[6]; 0.5 h, ref Klug et al.
  blood/brain ratio: 2.4
[6]; 4 h, ref Klug et al.
  blood/brain ratio: 2.1

## c1cncc(Nc2nccc(-c3cnn4ncccc34)n2)c1 [Compound 2b]
[1]
  EC50: 1.5 ± 0.12 µM
[2]; [12]
  EC50: 0.3 ± 0.21 µM
[3]; [13]
  EC50: 5 ± 0.1 µM
[4]; [10]
  CC50 at 48 h: > 50 µM
[6]; 10 mg/kg
  in vivo toxicity in PK study: in vivo toxicity was observed; also recorded: acute toxicity was seen

## Cc1ccc(Nc2nccc(-c3cnn4ncccc34)n2)cn1 [Compound 2d]
[1]
  EC50: 0.92 ± 0.3 µM
[2]; [12]
  EC50: 0.43 ± 0.13 µM
[3]; [13]
  EC50: 1.6 ± 0.1 µM
[4]; [10]
  CC50 at 48 h: > 50 µM
[6]
  in vivo toxicity in PK study: acute toxicity was seen

## N#Cc1cccc(-c2n[nH]c3ncc(-c4cnn(C5CCOCC5)c4)cc23)c1 [Compound 4a]
[1]; [7]
  EC50: 11 ± 9 µM
[3]; [9]
  EC50: 3.3 ± 0.62 µM
[4]; [10]
  CC50 at 48 h: > 50 µM
MRC5 cells
  MRC5 TC50 ± Standard Deviation: > 50
[5]; [11]
  CC50 at 72 h: 2.8 ± 0.92 µM
L6 cells
  L6 TC50 ± Standard Deviation: 2.8 ± 0.92
THP-1
  THP-1 TC50 ± Standard Deviation: > 50

## Cc1c(-c2cnn(C3CCOCC3)c2)cnc2[nH]cc(-c3cccc(C#N)c3)c12 [Compound 4b]
[1]; [7]
  EC50: 11 ± 2.3 µM
[3]; [9]
  EC50: 1 ± 0.12 µM
[4]; [10]
  CC50 at 48 h: > 50 µM
MRC5 cells
  MRC5 TC50 ± Standard Deviation: > 50
MRC5 cells; up to 50 μM
  activity/toxicity against MRC5 cells (in words): not toxic
[5]; [11]
  CC50 at 72 h: 11 ± 1.5 µM
L6 cells
  L6 TC50 ± Standard Deviation: 11 ± 1.5
THP-1
  THP-1 TC50 ± Standard Deviation: > 50

## N#Cc1cccc(-c2c[nH]c3ncc(-c4cnn(C5CCNCC5)c4)cc23)c1 [Compound 4c]
[1]; [7]
  EC50: > 20 µM
[6]; ref Klug et al., 2021
  brain exposure in PK: negligible brain exposure

## Cn1cc(-c2cnc3[nH]cc(-c4cncc(C#N)c4)c3c2)cn1 [Compound 4e]
[2]; [8]
  EC50: > 20 µM
[3]; [9]
  EC50: 8.3 ± 1.3 µM
[4]; [10]
  CC50 at 48 h: > 50 µM
MRC5 cells
  MRC5 TC50 ± Standard Deviation: > 50
L6 cells
  L6 TC50 ± Standard Deviation: > 50
THP-1
  THP-1 TC50 ± Standard Deviation: > 50

## CN(C)Cc1ccc(-c2cc3c(-c4cnn(C)c4)ccnc3[nH]2)cc1 [Compound 5c]
[2]; [12]
  EC50: 5.6 ± 0.29 µM
[3]; Balamuthia mandrillaris, ATCC50209, 72 h, read-out: Balamuthia mandrillaris EC50 ± SD, logarithmic trophozoites, 72 h, n = 3 (converted)
  EC50: 12 ± 0.09 µM
[4]
  CC50 at 48 h: 11 ± 0.9 µM
MRC5 cells
  MRC5 TC50 ± Standard Deviation: 14 ± 2.4
[5]
  CC50 at 72 h: < 0.62 µM
L6 cells
  L6 TC50 ± Standard Deviation: < 0.62
THP-1
  THP-1 TC50 ± Standard Deviation: < 0.62

## FC1(F)CCN(c2nc(Nc3ccsc3)nc3[nH]cnc23)CC1 [Compound 6e]
[2]; [8]
  EC50: > 20 µM
[4]; [10]
  CC50 at 48 h: > 50 µM
MRC5 cells
  MRC5 TC50 ± Standard Deviation: > 50
[5]; [11]
  CC50 at 72 h: > 50 µM
L6 cells
  L6 TC50 ± Standard Deviation: > 50
THP-1
  THP-1 TC50 ± Standard Deviation: > 50

## c1cc(-c2c[nH]c3ncc(-c4cnn(C5CCOCC5)c4)cc23)ccn1 [Compound S31]
[1]; [7]
  EC50: > 20 µM
[2]; [12]
  EC50: > 20 µM
[3]; [9]
  EC50: > 20 µM
MRC5 cells
  MRC5 TC50 ± Standard Deviation: 7.9 ± 2.3
L6 cells
  L6 TC50 ± Standard Deviation: 5.7 ± 0.49
THP-1
  THP-1 TC50 ± Standard Deviation: 5.8 ± 0.43
